*1 amine or outer side, *2 acyl side, *3 side chain or, on linkers, in order; H or OH if unused. Where a SMILES comes first, the peptide text is derived from it. Side-chain parts run from the residue outwards. [ ]: non-standard residue; d: D form. The star is where a group is joined. C20 diacid = O=C(O)CCCCCCCCCCCCCCCCCCC(=O)*; αMePhe(2-F) = C[C@](N)(Cc1ccccc1F)C(=O)O; γGlu = O=C(O)[C@H](CCC(=O)[*:2])N[*:1]; αMeF = C[C@](N)(Cc1ccccc1)C(=O)O; 4Pal = N[C@@H](Cc1ccncc1)C(=O)O; αMeL = CC(C)C[C@](C)(N)C(=O)O; Orn = NCCC[C@H](N)C(=O)O; AEEA = NCCOCCOCC(=O)O; Aib = CC(C)(N)C(=O)O
Assays:
human GIPR = target: T1, human GIPR (Homo sapiens, UniProt P48546); test: [125I]-GIP binding, SPA with WGA beads, 0.1% bacitracin; details: geometric mean, read-out: hGIPR Ki
T1 construct: expressed in transfected cells; crude membranes
T1 sequence (P48546 22-466): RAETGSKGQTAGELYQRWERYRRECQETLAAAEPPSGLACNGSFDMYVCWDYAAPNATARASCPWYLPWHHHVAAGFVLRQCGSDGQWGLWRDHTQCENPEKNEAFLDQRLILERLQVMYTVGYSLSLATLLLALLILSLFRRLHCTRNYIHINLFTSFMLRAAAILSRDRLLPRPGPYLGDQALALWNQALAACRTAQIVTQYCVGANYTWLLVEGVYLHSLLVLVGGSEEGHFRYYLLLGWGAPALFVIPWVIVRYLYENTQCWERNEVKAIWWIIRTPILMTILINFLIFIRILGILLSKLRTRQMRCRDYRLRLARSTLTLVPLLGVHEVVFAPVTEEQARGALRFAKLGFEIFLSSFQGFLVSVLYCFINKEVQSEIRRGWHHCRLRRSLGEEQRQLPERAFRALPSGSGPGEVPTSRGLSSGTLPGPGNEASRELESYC
Method in brief: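 Ki values are geometric means (SEM, n independent days), derived from four-parameter nonlinear regression of IC50. Membranes came from hGIPR-expressing CHO cells.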

human GLP-1R = target: T2, human GLP-1R (Homo sapiens, UniProt P43220); test: [125I]-GLP-1 binding, SPA with WGA beads, 0.1% bacitracin; details: geometric mean, read-out: hGLP1R Ki
T2 construct: expressed in transfected cells; crude membranes
T2 sequence (P43220 24-463): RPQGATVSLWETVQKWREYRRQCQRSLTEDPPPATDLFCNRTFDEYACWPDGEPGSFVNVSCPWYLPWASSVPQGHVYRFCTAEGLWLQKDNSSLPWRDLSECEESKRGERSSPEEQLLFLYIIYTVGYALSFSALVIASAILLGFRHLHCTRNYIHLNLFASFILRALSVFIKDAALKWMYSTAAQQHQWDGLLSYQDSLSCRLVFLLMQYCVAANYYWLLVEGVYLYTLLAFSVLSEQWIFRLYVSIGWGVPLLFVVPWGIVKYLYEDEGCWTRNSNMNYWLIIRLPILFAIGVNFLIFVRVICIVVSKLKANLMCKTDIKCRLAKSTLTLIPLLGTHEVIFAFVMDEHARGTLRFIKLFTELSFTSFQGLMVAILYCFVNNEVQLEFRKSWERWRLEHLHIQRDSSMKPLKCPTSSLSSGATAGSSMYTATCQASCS
Method in brief: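 Binding buffer was 25 mM HEPES pH 7.4 with 2.5 mM CaCl2, 1 mM MgCl2, 0.1% (w/v) bacitracin, 0.003% Tween-20 and EDTA-free protease inhibitors. Four-parameter regression gave IC50, converted to Ki (geometric mean, SEM, n independent days).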

Structure (SMILES) | Ki (human GIPR) [pM] | Ki (human GLP-1R) [pM]
CC[C@H](C)[C@H](NC(=O)[C@H](CCCN)NC(=O)[C@H](CC(=O)O)NC(=O)[C@H](CC(C)C)NC(=O)[C@](C)(CC(C)C)NC(=O)[C@@H](NC(=O)[C@H](CO)NC(=O)[C@H](Cc1ccc(O)cc1)NC(=O)[C@H](CC(=O)O)NC(=O)[C@H](CO)NC(=O)[C@@H](NC(=O)[C@H](Cc1ccccc1)NC(=O)[C@@H](NC(=O)CNC(=O)[C@H](CCC(=O)O)NC(=O)C(C)(C)NC(=O)[C@@H](N)Cc1ccc(O)cc1)[C@@H](C)O)[C@@H](C)CC)[C@@H](C)CC)C(=O)N[C@@H](Cc1c[nH]cn1)C(=O)N[C@@H](CCC(N)=O)C(=O)NC(C)(C)C(=O)N[C@@H](CCC(=O)O)C(=O)N[C@@H](Cc1ccccc1)C(=O)N[C@H](C(=O)N[C@@H](CCC(=O)O)C(=O)N[C@@H](Cc1ccc(O)cc1)C(=O)N[C@@H](CCCCNC(=O)COCCOCCNC(=O)COCCOCCNC(=O)CC[C@H](NC(=O)CCCCCCCCCCCCCCCCCCC(=O)O)C(=O)O)C(=O)N[C@@H](CC(C)C)C(=O)N[C@@H](CCC(=O)O)C(=O)NCC(=O)NCC(=O)N1CCC[C@H]1C(=O)N[C@@H](CO)C(=O)N[C@@H](CO)C(=O)NCC(=O)N[C@@H](C)C(=O)N1CCC[C@H]1C(=O)N1CCC[C@H]1C(=O)N1CCC[C@H]1C(=O)N[C@@H](CO)C(N)=O)C(C)C [Example 107] (H-Y[Aib]EGTFISDYSI[αMeL]LD[Orn]IHQ[Aib]EFVEYK([AEEA-AEEA-γGlu-C20 diacid])LEGGPSSGAPPPS-NH2) | 72.2 | > 911000
CC[C@H](C)[C@H](NC(=O)[C@H](CO)NC(=O)[C@H](Cc1ccc(O)cc1)NC(=O)[C@H](CC(=O)O)NC(=O)[C@H](CO)NC(=O)[C@@H](NC(=O)[C@](C)(Cc1ccccc1)NC(=O)[C@@H](NC(=O)CNC(=O)[C@H](CCC(=O)O)NC(=O)C(C)(C)NC(=O)[C@@H](N)Cc1ccc(O)cc1)[C@@H](C)O)[C@@H](C)CC)C(=O)N[C@@H](C)C(=O)N[C@@H](CC(C)C)C(=O)N[C@@H](CC(=O)O)C(=O)N[C@@H](CCCCN)C(=O)N[C@@H](CCCCNC(=O)COCCOCCNC(=O)COCCOCCNC(=O)CC[C@H](NC(=O)CCCCCCCCCCCCCCCCCCC(=O)O)C(=O)O)C(=O)N[C@@H](Cc1c[nH]cn1)C(=O)N[C@@H](CCC(N)=O)C(=O)NC(C)(C)C(=O)N[C@@H](CCC(=O)O)C(=O)N[C@@H](Cc1ccccc1)C(=O)N[C@H](C(=O)N[C@@H](CC(N)=O)C(=O)N[C@@H](Cc1c[nH]c2ccccc12)C(=O)N[C@@H](CC(C)C)C(=O)N[C@@H](CC(C)C)C(=O)N[C@@H](C)C(=O)NCC(=O)NCC(=O)N1CCC[C@H]1C(=O)N[C@@H](CO)C(=O)N[C@@H](CO)C(=O)NCC(=O)N[C@@H](C)C(=O)N1CCC[C@H]1C(=O)N1CCC[C@H]1C(=O)N1CCC[C@H]1C(=O)N[C@@H](CO)C(N)=O)C(C)C [Example 25] (H-Y[Aib]EGT[αMeF]ISDYSIALDKK([AEEA-AEEA-γGlu-C20 diacid])HQ[Aib]EFVNWLLAGGPSSGAPPPS-NH2) | 41.7 | 15800
CC[C@H](C)[C@H](NC(=O)[C@H](CO)NC(=O)[C@H](Cc1ccc(O)cc1)NC(=O)[C@H](CC(=O)O)NC(=O)[C@H](CO)NC(=O)[C@@H](NC(=O)[C@](C)(Cc1ccccc1F)NC(=O)[C@@H](NC(=O)CNC(=O)[C@H](CCC(=O)O)NC(=O)C(C)(C)NC(=O)[C@@H](N)Cc1ccc(O)cc1)[C@@H](C)O)[C@@H](C)CC)C(=O)N[C@@H](C)C(=O)N[C@@H](CC(C)C)C(=O)N[C@@H](CC(=O)O)C(=O)N[C@@H](CCCCN)C(=O)N[C@H](C(=O)N[C@@H](Cc1c[nH]cn1)C(=O)N[C@@H](CCC(N)=O)C(=O)NC(C)(C)C(=O)N[C@@H](CC(=O)O)C(=O)N[C@@H](Cc1ccccc1)C(=O)N[C@H](C(=O)N[C@@H](CCC(=O)O)C(=O)N[C@@H](Cc1ccc(O)cc1)C(=O)N[C@@H](CCCCNC(=O)COCCOCCNC(=O)COCCOCCNC(=O)CC[C@H](NC(=O)CCCCCCCCCCCCCCCCCCC(=O)O)C(=O)O)C(=O)N[C@@H](CC(C)C)C(=O)N[C@@H](CCC(=O)O)C(=O)NCC(=O)NCC(=O)N1CCC[C@H]1C(=O)N[C@@H](CO)C(=O)N[C@@H](CO)C(=O)NCC(=O)N[C@@H](C)C(=O)N1CCC[C@H]1C(=O)N1CCC[C@H]1C(=O)N1CCC[C@H]1C(=O)N[C@@H](CO)C(N)=O)C(C)C)[C@@H](C)CC [Example 99] (H-Y[Aib]EGT[αMePhe(2-F)]ISDYSIALDKIHQ[Aib]DFVEYK([AEEA-AEEA-γGlu-C20 diacid])LEGGPSSGAPPPS-NH2) | 34.1 | > 901000
CC[C@H](C)[C@H](NC(=O)[C@H](Cc1ccccc1)NC(=O)[C@@H](NC(=O)CNC(=O)[C@H](CCC(=O)O)NC(=O)C(C)(C)NC(=O)[C@@H](N)Cc1ccc(O)cc1)[C@@H](C)O)C(=O)N[C@@H](CO)C(=O)N[C@@H](CC(=O)O)C(=O)N[C@@H](Cc1ccc(O)cc1)C(=O)N[C@@H](CO)C(=O)N[C@H](C(=O)N[C@@](C)(CC(C)C)C(=O)N[C@@H](CC(C)C)C(=O)N[C@@H](CC(=O)O)C(=O)N[C@@H](CCC(=O)O)C(=O)N[C@@H](CCCCNC(=O)COCCOCCNC(=O)COCCOCCNC(=O)CC[C@H](NC(=O)CCCCCCCCCCCCCCCCCCC(=O)O)C(=O)O)C(=O)N[C@@H](Cc1c[nH]cn1)C(=O)N[C@@H](CCC(N)=O)C(=O)NC(C)(C)C(=O)N[C@@H](CC(=O)O)C(=O)N[C@@H](Cc1ccccc1)C(=O)N[C@H](C(=O)N[C@@H](CCC(=O)O)C(=O)N[C@@H](Cc1ccncc1)C(=O)N[C@@H](CC(C)C)C(=O)N[C@@H](CC(C)C)C(=O)N[C@@H](C)C(=O)N[C@@H](CCC(N)=O)C(=O)NCC(=O)N1CCC[C@H]1C(=O)N[C@@H](CO)C(=O)N[C@@H](CO)C(=O)NCC(=O)N[C@@H](C)C(=O)N1CCC[C@H]1C(=O)N1CCC[C@H]1C(=O)N1CCC[C@H]1C(=O)N[C@@H](CO)C(N)=O)C(C)C)[C@@H](C)CC [Example 84] (H-Y[Aib]EGTFISDYSI[αMeL]LDEK([AEEA-AEEA-γGlu-C20 diacid])HQ[Aib]DFVE[4Pal]LLAQGPSSGAPPPS-NH2) | 58.4 | 325000
CC[C@H](C)[C@H](NC(=O)[C@H](CCCN)NC(=O)[C@H](CC(=O)O)NC(=O)[C@H](CC(C)C)NC(=O)[C@](C)(CC(C)C)NC(=O)[C@@H](NC(=O)[C@H](CO)NC(=O)[C@H](Cc1ccc(O)cc1)NC(=O)[C@H](CC(=O)O)NC(=O)[C@H](CO)NC(=O)[C@@H](NC(=O)[C@H](Cc1ccccc1)NC(=O)[C@@H](NC(=O)CNC(=O)[C@H](CCC(=O)O)NC(=O)C(C)(C)NC(=O)[C@@H](N)Cc1ccc(O)cc1)[C@@H](C)O)[C@@H](C)CC)[C@@H](C)CC)C(=O)N[C@@H](Cc1c[nH]cn1)C(=O)N[C@@H](CCC(N)=O)C(=O)NC(C)(C)C(=O)N[C@@H](CC(=O)O)C(=O)N[C@@H](Cc1ccccc1)C(=O)N[C@H](C(=O)N[C@H](CCC(=O)O)C(=O)N[C@@H](Cc1ccc(O)cc1)C(=O)N[C@@H](CCCCNC(=O)COCCOCCNC(=O)COCCOCCNC(=O)CC[C@H](NC(=O)CCCCCCCCCCCCCCCCCCC(=O)O)C(=O)O)C(=O)N[C@@H](CC(C)C)C(=O)N[C@@H](CCC(=O)O)C(=O)NCC(=O)NCC(=O)N1CCC[C@H]1C(=O)N[C@@H](CO)C(=O)N[C@@H](CO)C(=O)NCC(=O)N[C@@H](C)C(=O)N1CCC[C@H]1C(=O)N1CCC[C@H]1C(=O)N1CCC[C@H]1C(=O)N[C@@H](CO)C(N)=O)C(C)C [Example 101] | 139 | > 913000
